According to patent US20220264878A1, “HERBICIDAL COMPOSITION CONTAINING R-TYPE PYRIDYLOXY CARBOXYLIC ACID DERIVATIVE AND USE THEREOF” (Qingdao Kingagroot Chemical Compound Co., Ltd., priority 2019, published 2022):
Read-outs that look alike come from different tables or passages of the source.

Columns and labels:
Echinochloa caudate = assay: Post-emergence foliage spray, pot culture, fresh weight inhibition (Tables 1-48, 51-98, 101-148; 24 days); type: in vivo; details: for Control effect (%) of B applied alone in corresponding dose: Table 86
Description: (§1) The above weeds were cultivated by a pot culture method. […] Full and uniform weed seeds were selected, soaked in warm water at 25° C. for 6 hours, and germinated in a 28° C. biochemical incubator (darkness). The weed seeds that had just germinatedwere evenly placed on the surface of the soil and then covered with 0.5-1 cm soil according to the sizes of seeds.
(§2) The technical materials were all dissolved in acetone, and diluted with an aqueous solution containing 0.1% emulsifier Tween-80. The dilution is performed as required.
(§3) A ratio of the active ingredient A to the active ingredient B and amounts thereof in each group depends on the characteristics and toxicity of the two agents, as well as the main application purpose of a corresponding formulation. Based on the pre-tests in this study, the dosage of the active ingredient A and B applied alone and in combination were shown in the tables. Water containing the solvent and emulsifier same with the above groups but free of the agents was used as a blank control.
(§4) In the stage of weeds with 3˜4 leaves, the weeds were thinned out to maintain 15 weeds per pot and 45 weeds for each treatment, then continued to be cultured to 5˜6 leaves stage of grassy weeds, 6˜7 leaves stage of broadleaf weeds, and treated.
(§5) The well-cultured weeds were evenly placed on a platform with an area of 0.5 m^2, and a solution of agents was sprayed on the stems and leaves thereof by the 3WP-2000-type walking spray tower at a dosage of 450 kg/ha and at a spray pressure of 0.3 MPa. After all the solution was sprayed, the valve was closed. After 30 seconds, the door of the spray tower was opened, and the nutritional bowl was taken out. Then the valve was opened, and the spray tube was cleaned by spraying 50 ml of water.
(§6) A pot-culture method was employed. For the cultivation of weeds, please refer to the Section 1.1), and “Pesticide guidelines for laboratory bioactivity tests—herbicides”. As to a method for applying agents, please refer to the section 2.3.2), that is, a foliage treatment was employed. After the treatment, the weeds were routinely cultured in a greenhouse.
(§7) A method for investigating absolute number was employed, wherein whole seedlings of survival weeds were cut off with a blade along the soil surface, and the fresh weight of the weeds was weighed with an analytical balance. For dead weeds, the fresh weight thereof was zero.
(§8) Wherein, in the formula, X represented the fresh weight inhibition rate of the active ingredient A in a dosage of P, and Y represented the fresh weight inhibition rate of the active ingredient B in a dosage of Q.

Echinochloa oryzoides = assay: as above; type: in vivo
Description: as §1, §2, §3, §4, §5, §6, §7, §8

[1] = Echinochloa, 576 h, read-out: Control effect (%) of B applied alone in corresponding dose
[2] = Echinochloa oryzoides, 576 h, read-out: Control effect (%) of B applied alone in corresponding dose

For `CCNc1nc(Cl)nc(NC(C)C)n1` [atrazine], the pest or weed control at 75 g/ha (Echinochloa caudate; Echinochloa, 576 h, atrazine 75 g a.i./ha, read-out: Control effect (%) of B applied alone in corresponding dose) was 3.8%, the pest or weed control at 150 g/ha (Echinochloa caudate; Echinochloa, 576 h, atrazine 150 g a.i./ha, read-out: Control effect (%) of B applied alone in corresponding dose) was 13.5% and the pest or weed control at 300 g/ha (Echinochloa caudate; Echinochloa, 576 h, atrazine 300 g a.i./ha, read-out: Control effect (%) of B applied alone in corresponding dose) was 24.8%. The pest or weed control at 600 g/ha (Echinochloa caudate; Echinochloa, 576 h, atrazine 600 g a.i./ha, read-out: Control effect (%) of B applied alone in corresponding dose) was 66.5%, the pest or weed control at 75 g/ha (Echinochloa oryzoides; Echinochloa oryzoides, 576 h, B 75 g a.i./ha, read-out: Control effect (%) of B applied alone in corresponding dose) was 6.7% and the pest or weed control at 150 g/ha (Echinochloa oryzoides; Echinochloa oryzoides, 576 h, B 150 g a.i./ha, read-out: Control effect (%) of B applied alone in corresponding dose) was 21.7%. The pest or weed control at 300 g/ha (Echinochloa oryzoides; Echinochloa oryzoides, 576 h, B 300 g a.i./ha, read-out: Control effect (%) of B applied alone in corresponding dose) was 26.4% and the pest or weed control at 600 g/ha (Echinochloa oryzoides; Echinochloa oryzoides, 576 h, B 600 g a.i./ha, read-out: Control effect (%) of B applied alone in corresponding dose) was 61.8%.

For `CS(=O)(=O)c1ccc(C(=O)C2=C(Sc3ccccc3)C3CCC(C3)C2=O)c(Cl)c1` (stereo not drawn) [benzobicylon], the “Control effect (%) of B applied alone in corresponding dose” value (shortened to “Control effect (%) of B applied alone”) (Echinochloa caudate; 37.5 g a.i./ha) was 2.1%, the “Control effect (%) of B applied alone” value (Echinochloa caudate; 75 g a.i./ha) was 11.7% and the “Control effect (%) of B applied alone” value (Echinochloa caudate; 150 g a.i./ha) was 43.3%. For the same compound, the “Control effect (%) of B applied alone” value (Echinochloa caudate; 300 g a.i./ha) was 54.4%, the “Control effect (%) of B applied alone” value (Echinochloa oryzoides; B 37.5 g a.i./ha) was 9.3% and the “Control effect (%) of B applied alone” value (Echinochloa oryzoides; B 75 g a.i./ha) was 18.0%. For the same compound, the “Control effect (%) of B applied alone” value (Echinochloa oryzoides; B 150 g a.i./ha) was 46.6% and the “Control effect (%) of B applied alone” value (Echinochloa oryzoides; B 300 g a.i./ha) was 57.3%.

In the case of `CCSC(C)CC1CC(=O)C(/C(CC)=N/OC/C=C/Cl)=C(O)C1` (stereo not drawn) [clethodim], the pest or weed control at 7.5 g/ha (Echinochloa caudate; [1]) was 3.4%, the pest or weed control at 15 g/ha (Echinochloa caudate; [1]) was 27% and the pest or weed control at 30 g/ha (Echinochloa caudate; [1]) was 43.8%. For the same compound, the pest or weed control at 60 g/ha (Echinochloa caudate; [1]) was 67.4%, the pest or weed control at 7.5 g/ha (Echinochloa oryzoides; [2]) was 6.7% and the pest or weed control at 15 g/ha (Echinochloa oryzoides; [2]) was 19%. For the same compound, the pest or weed control at 30 g/ha (Echinochloa oryzoides; [2]) was 37.8% and the pest or weed control at 60 g/ha (Echinochloa oryzoides; [2]) was 62.7%.

With `CC1(C)CON(Cc2ccccc2Cl)C1=O` [clomazone] the pest or weed control at 45 g/ha (Echinochloa caudate; Echinochloa, 576 h, Table 89, 45 g a.i./ha, read-out: Control effect (%) of B applied alone in corresponding dose) was 8.6%, the pest or weed control at 90 g/ha (Echinochloa caudate; Echinochloa, 576 h, Table 89, 90 g a.i./ha, read-out: Control effect (%) of B applied alone in corresponding dose) was 19% and the pest or weed control at 180 g/ha (Echinochloa caudate; Echinochloa, 576 h, Table 89, 180 g a.i./ha, read-out: Control effect (%) of B applied alone in corresponding dose) was 47.7%. The pest or weed control at 360 g/ha (Echinochloa caudate; Echinochloa, 576 h, Table 89, 360 g a.i./ha, read-out: Control effect (%) of B applied alone in corresponding dose) was 70.1%, the pest or weed control at 45 g/ha (Echinochloa oryzoides; Echinochloa oryzoides, 576 h, B 45 g a.i./ha, read-out: Control effect (%) of B applied alone in corresponding dose) was 8.6% and the pest or weed control at 90 g/ha (Echinochloa oryzoides; Echinochloa oryzoides, 576 h, B 90 g a.i./ha, read-out: Control effect (%) of B applied alone in corresponding dose) was 12.9%. For the same compound, the pest or weed control at 180 g/ha (Echinochloa oryzoides; Echinochloa oryzoides, 576 h, B 180 g a.i./ha, read-out: Control effect (%) of B applied alone in corresponding dose) was 50.9% and the pest or weed control at 360 g/ha (Echinochloa oryzoides; Echinochloa oryzoides, 576 h, B 360 g a.i./ha, read-out: Control effect (%) of B applied alone in corresponding dose) was 72.1%.

Work on `CCCCOC(=O)[C@@H](C)Oc1ccc(Oc2ccc(C#N)cc2F)cc1` [cyhalofop-butyl] yielded a pest or weed control at 9.375 g/ha (Echinochloa caudate; [1]) of 5.9%, a pest or weed control at 18.75 g/ha (Echinochloa caudate; [1]) of 11.4% and a pest or weed control at 37.5 g/ha (Echinochloa caudate; [1]) of 29.9%. The pest or weed control at 75 g/ha (Echinochloa caudate; [1]) was 69.6%, the pest or weed control at 9.375 g/ha (Echinochloa oryzoides; [2]) was 5.5% and the pest or weed control at 18.75 g/ha (Echinochloa oryzoides; [2]) was 15%. For the same compound, the pest or weed control at 37.5 g/ha (Echinochloa oryzoides; [2]) was 32.1% and the pest or weed control at 75 g/ha (Echinochloa oryzoides; [2]) was 63.5%.

`CN(C)C(=O)Nc1ccc(Cl)c(Cl)c1` [diuron] gave a pest or weed control at 75 g/ha (Echinochloa caudate; [1]) of 3%, a pest or weed control at 150 g/ha (Echinochloa caudate; [1]) of 16.5% and a pest or weed control at 300 g/ha (Echinochloa caudate; [1]) of 28.6%. It also gave a pest or weed control at 600 g/ha (Echinochloa caudate; [1]) of 52.2%, a pest or weed control at 75 g/ha (Echinochloa oryzoides; [2]) of 4.1% and a pest or weed control at 150 g/ha (Echinochloa oryzoides; [2]) of 14%. The pest or weed control at 300 g/ha (Echinochloa oryzoides; [2]) was 31.3% and the pest or weed control at 600 g/ha (Echinochloa oryzoides; [2]) was 56.2%.
